From ChEMBL document CHEMBL1201862, “PubChem BioAssay data set” (2004)
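Grown in 96-well plates, cells were treated for 48 hours with each compound at five concentrations. Insufficient inhibition: endpoint recorded as highest concentration tested. GI50: concentration for 50% inhibition of growth.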 Active and inactive are the calls of the source. Cut-off read from the data, not from the text of the source: active = GI50 up to about 1.1 µM and inactive = higher.

Tests used:
Assay in all cases: inhibition of tumour cell growth, NCI panel, 48 h
[1] = test system: HCC 2998
[2] = test system: HCT-15
[3] = test system: HL-60
[4] = test system: HT-29
[5] = test system: IGROV-1
[6] = test system: K562
[7] = test system: KM12
[8] = test system: LOX IMVI
[9] = test system: OVCAR-3
[10] = test system: OVCAR-4
[11] = test system: OVCAR-8
[12] = test system: SF-268
[13] = test system: SK-MEL-28
[14] = test system: SK-MEL-2
[15] = test system: SN12C
[16] = test system: TK-10
[17] = test system: A498
[18] = test system: CAKI-1
[19] = test system: MCF7

Structure (SMILES)	GI50 [1]	GI50 [2] [µM]	GI50 [3]	GI50 [4]	GI50 [5]	GI50 [6]	GI50 [7]	GI50 [8]	GI50 [9]	GI50 [10]	GI50 [11]	GI50 [12]	GI50 [13]	GI50 [14]	GI50 [15]	GI50 [16]	GI50 [17]	GI50 [18]	GI50 [19]
O=C(CSc1nnc(Cc2ccccc2)o1)Nc1cccc([N+](=O)[O-])c1	> 100 µM (inactive)	> 100	> 100 µM (inactive)	> 100 µM (inactive)	> 100 µM (inactive)	> 100 µM (inactive)	> 100 µM (inactive)	> 100 µM (inactive)	> 100 µM (inactive)	> 100 µM (inactive)	> 100 µM (inactive)	> 100 µM (inactive)	> 100 µM (inactive)	> 100 µM (inactive)	> 100 µM (inactive)	> 100 µM (inactive)			
COc1cc(OC)c(C(=O)c2cccs2)cc1N	> 100 µM (inactive)	> 100		> 100 µM (inactive)	> 100 µM (inactive)	> 100 µM (inactive)	> 100 µM (inactive)	> 100 µM (inactive)	> 100 µM (inactive)	> 100 µM (inactive)	> 100 µM (inactive)	> 100 µM (inactive)	> 100 µM (inactive)	> 100 µM (inactive)	> 100 µM (inactive)	> 100 µM (inactive)	> 100 µM (inactive)	> 100 µM (inactive)	
CCOc1ccc(NCC(=O)N2CC(=O)Nc3ccccc32)cc1	> 100 µM (inactive)	> 100	> 100 µM (inactive)	> 100 µM (inactive)		> 100 µM (inactive)	> 100 µM (inactive)	> 100 µM (inactive)	> 100 µM (inactive)	> 100 µM (inactive)	> 100 µM (inactive)	> 100 µM (inactive)	> 100 µM (inactive)	> 100 µM (inactive)	> 100 µM (inactive)	> 100 µM (inactive)		> 100 µM (inactive)	
COc1cc(NC(C)=O)c2[nH]c3c(C)cc(NC(C)=O)c(C)c3c2c1	> 100 µM (inactive)	> 100	> 100 µM (inactive)	> 100 µM (inactive)	> 100 µM (inactive)	> 100 µM (inactive)	> 100 µM (inactive)		> 100 µM (inactive)	> 100 µM (inactive)	> 100 µM (inactive)	> 100 µM (inactive)	> 100 µM (inactive)	> 100 µM (inactive)	> 100 µM (inactive)	> 100 µM (inactive)	> 100 µM (inactive)	> 100 µM (inactive)	
C/C(CC(=O)Nc1ccc(Cl)cc1)=N\NC(=O)C[n+]1ccccc1	> 100 µM (inactive)		> 100 µM (inactive)	> 100 µM (inactive)	> 100 µM (inactive)	> 100 µM (inactive)	> 100 µM (inactive)	> 100 µM (inactive)	> 100 µM (inactive)		> 100 µM (inactive)	> 100 µM (inactive)	> 100 µM (inactive)	> 100 µM (inactive)		> 100 µM (inactive)			
COc1cc(/C=c2\sc3n(c2=O)C(c2ccc(Cl)cc2)C2=C(CCCC2C)N=3)cc(OC)c1OC (stereo not given)		> 100	> 100 µM (inactive)	> 100 µM (inactive)	> 100 µM (inactive)	> 100 µM (inactive)	> 100 µM (inactive)	> 100 µM (inactive)			> 100 µM (inactive)	> 100 µM (inactive)	> 100 µM (inactive)	> 100 µM (inactive)	> 100 µM (inactive)	> 100 µM (inactive)	> 100 µM (inactive)	> 100 µM (inactive)	> 100 µM (inactive)
CCOC(=O)C1(C#N)C(c2ccccc2)CC(O)(c2ccc([N+](=O)[O-])cc2)C(C(=O)c2ccc([N+](=O)[O-])cc2)C1c1ccccc1 (stereo not given)	> 100 µM (inactive)	> 100	> 100 µM (inactive)	> 100 µM (inactive)	> 100 µM (inactive)	> 100 µM (inactive)	> 100 µM (inactive)	> 100 µM (inactive)	> 100 µM (inactive)	> 100 µM (inactive)	> 100 µM (inactive)	> 100 µM (inactive)	> 100 µM (inactive)	> 100 µM (inactive)	> 100 µM (inactive)	> 100 µM (inactive)		> 100 µM (inactive)	
Cc1cc(NS(=O)(=O)c2ccc(NC(=O)COC(=O)c3cccc4c(=O)c5ccccc5[nH]c34)cc2)no1	> 100 µM (inactive)	> 100	> 100 µM (inactive)	> 100 µM (inactive)	> 100 µM (inactive)	> 100 µM (inactive)	> 100 µM (inactive)	> 100 µM (inactive)	> 100 µM (inactive)	> 100 µM (inactive)	> 100 µM (inactive)	> 100 µM (inactive)	> 100 µM (inactive)		> 100 µM (inactive)	> 100 µM (inactive)	> 100 µM (inactive)	> 100 µM (inactive)	
COC(=O)C(CC(C)C)NC(=O)NC12CC3CC(CC(F)(C3)C1)C2 (stereo not given)	29.3 µM (inactive)		> 100 µM (inactive)	> 100 µM (inactive)	> 100 µM (inactive)	> 100 µM (inactive)	> 100 µM (inactive)	> 100 µM (inactive)	> 100 µM (inactive)		> 100 µM (inactive)		> 100 µM (inactive)	> 100 µM (inactive)		> 100 µM (inactive)	> 100 µM (inactive)		
Cc1c(C)c2cc3c(=O)c(CCl)coc3c(C)c2oc1=O	> 100 µM (inactive)	> 100	> 100 µM (inactive)		> 100 µM (inactive)	> 100 µM (inactive)	> 100 µM (inactive)	> 100 µM (inactive)	> 100 µM (inactive)		> 100 µM (inactive)	> 100 µM (inactive)	> 100 µM (inactive)	> 100 µM (inactive)	> 100 µM (inactive)	> 100 µM (inactive)	> 100 µM (inactive)		
CC(=O)OC1CC2OC(Cc3ccccc32)O1 (stereo not given)	> 100 µM (inactive)		> 100 µM (inactive)	> 100 µM (inactive)	> 100 µM (inactive)	> 100 µM (inactive)	> 100 µM (inactive)	> 100 µM (inactive)	> 100 µM (inactive)		> 100 µM (inactive)	> 100 µM (inactive)	> 100 µM (inactive)	> 100 µM (inactive)	64.1 µM (inactive)	> 100 µM (inactive)			
COC(=O)C(Cc1nc2ccc(Cl)cc2nc1O)/C(=N/O)C(=O)Nc1cccc(Cl)c1C (stereo not given)	> 100 µM (inactive)	> 100	> 100 µM (inactive)	> 100 µM (inactive)	> 100 µM (inactive)	> 100 µM (inactive)	> 100 µM (inactive)	> 100 µM (inactive)	> 100 µM (inactive)	> 100 µM (inactive)	> 100 µM (inactive)	> 100 µM (inactive)	> 100 µM (inactive)	> 100 µM (inactive)	> 100 µM (inactive)	> 100 µM (inactive)	> 100 µM (inactive)	> 100 µM (inactive)	
O=C1NC2OC(C(O)CO)C(O)C2O1 (stereo not given)	> 100 µM (inactive)	> 100	> 100 µM (inactive)	> 100 µM (inactive)	> 100 µM (inactive)	> 100 µM (inactive)	> 100 µM (inactive)	> 100 µM (inactive)	> 100 µM (inactive)	> 100 µM (inactive)	> 100 µM (inactive)	> 100 µM (inactive)	> 100 µM (inactive)	> 100 µM (inactive)	> 100 µM (inactive)	> 100 µM (inactive)	> 100 µM (inactive)	> 100 µM (inactive)	
CC(C)c1cccc(C(C)C)c1NC(=S)Nc1ccccc1	> 100 µM (inactive)	> 100	6.81 µM (inactive)	> 100 µM (inactive)	> 100 µM (inactive)	70.6 µM (inactive)	> 100 µM (inactive)	79.4 µM (inactive)	> 100 µM (inactive)	10.8 µM (inactive)	> 100 µM (inactive)	> 100 µM (inactive)	> 100 µM (inactive)	> 100 µM (inactive)	> 100 µM (inactive)	> 100 µM (inactive)	> 100 µM (inactive)		
Cc1ccccc1NC(=O)C(=O)CC(=O)c1ccc([N+](=O)[O-])cc1	23.8 µM (inactive)	> 100		> 100 µM (inactive)	> 100 µM (inactive)		> 100 µM (inactive)	> 100 µM (inactive)	> 100 µM (inactive)	> 100 µM (inactive)	> 100 µM (inactive)	> 100 µM (inactive)	> 100 µM (inactive)	> 100 µM (inactive)	> 100 µM (inactive)	> 100 µM (inactive)		> 100 µM (inactive)	
CCOC(=O)CC1=CSC2=NCCN12	> 100 µM (inactive)	> 100	> 100 µM (inactive)	> 100 µM (inactive)	> 100 µM (inactive)	> 100 µM (inactive)	> 100 µM (inactive)	> 100 µM (inactive)	> 100 µM (inactive)	> 100 µM (inactive)	> 100 µM (inactive)	> 100 µM (inactive)	> 100 µM (inactive)	> 100 µM (inactive)	> 100 µM (inactive)	> 100 µM (inactive)	> 100 µM (inactive)	> 100 µM (inactive)	
COc1cc2c(c(OC)c1OC)-c1ccc(SC)c(=O)cc1[C@@H](NCc1ccc(C#N)cc1)CC2	0.00291 µM (active)	0.00472	0.00301 µM (active)	0.00239 µM (active)	0.00412 µM (active)	0.00383 µM (active)	0.00469 µM (active)	0.00521 µM (active)	0.00321 µM (active)	3.74 µM (inactive)	0.0041 µM (active)	0.00612 µM (active)	0.00578 µM (active)	0.00703 µM (active)	0.00449 µM (active)	0.00811 µM (active)	0.00589 µM (active)	0.00701 µM (active)	
